Results as given in the NIST ThermoML archive (doi:10.1016/j.jct.2005.12.003).
Numbers after ± are expanded uncertainties.

Tests used:
[1] = Liquid; for mass density: 298.15 K, 101.33 kPa; for vapor or sublimation pressure: refractive and density measurements
[2] = refractive index (Na D-line) (dimensionless); settings: 298.15 K; 101.33 kPa; Liquid; Standard Abbe refractometry

| mass density [1] | vapor or sublimation pressure ([1]; 353.25 K) | refractive index [2] | vapor or sublimation pressure ([1]; 353.89 K) | Compound | vapor or sublimation pressure ([1]; 404.82 K) |
| --- | --- | --- | --- | --- | --- |
| 873.6 ± 0.2 kg/m3 | 101.3 kPa | 1.49692 ± 0.00072 |  | c1ccccc1 [benzene] |  |
| 773.7 ± 0.3 kg/m3 |  | 1.4232 ± 0.00072 | 101.3 kPa | C1CCCCC1 [cyclohexane] |  |

| Compound | mass density [1] | vapor or sublimation pressure ([1]; 353.25 K) | refractive index [2] | vapor or sublimation pressure ([1]; 353.89 K) | vapor or sublimation pressure ([1]; 404.82 K) |
| --- | --- | --- | --- | --- | --- |
| Clc1ccccc1 [chlorobenzene] | 1100.8 ± 0.5 kg/m3 |  | 1.52176 ± 0.00075 |  | 101.3 kPa |
